In patent US9078868B2, “Therapeutic agent for accelerating recovery of animal under medical treatment” (UNIVERSITY OF MIYAZAKI, priority 2010, dated 2015):
No end group written: not given here. *: point of attachment. Octanoyl = CCCCCCCC(=O)*

Test system: hospitalized animals (canines and felines) with poor physical conditions
Assay: Example 3-1: repeated dose of ghrelin (analyzed together with single dose animals), compiled by disease group
Type: in vivo
Set-up: key to Degree of anger or anxiety score after administration: 1 = calm/accustomed to staff … 5 = too violent to touch, bites
Conditions: for BUN: animals improved/animals evaluated / Body temperature: animals improved/animals evaluated / CPK: animals improved/animals evaluated / CRE: animals improved/animals evaluated / Degree of anger: animals improved/animals evaluated / GOT: animals improved/animals evaluated / GPT: animals improved/animals evaluated / PLT: animals improved/animals evaluated / Vigor: animals improved/animals evaluated / WBC: animals improved/animals evaluated / Respiratory rate: animals improved/animals evaluated / CRP: animals improved/animals evaluated: single or repeated dose; for Respiratory rate after administration: before administration 100/min; for GPT value after administration: before administration 1000 IU/L; for Activity (vigor) score after administration / Degree of anger or anxiety score after administration: example; for Activity (vigor) score after administration: scale 1-7; for Degree of anger or anxiety score after administration: before administration a score of 5, scale 1-5
Description: In these Examples, a canine-derived ghrelin (a peptide compound in which a side chain hydroxyl group of the serine residue at the 3rd position from the amino terminus is acylated with an n-octanoyl group in SEQ ID NO: 1) was used as ghrelin. The canine-derived ghrelin was chemically synthesized and then lyophilized, and a canine-derived ghrelin for administration containing 0.1, 0.3, 0.5, or 1 mg per vial of a canine-derived ghrelin was prepared.
To administer ghrelin to animals, the canine-derived ghrelin was dissolved to a concentration of 1 mg/2 mL in physiological saline and intravenously, subcutaneously, or intramuscularly injected after the dose was adjusted depending on the body weight.
The evaluation parameters used were activity (vigor), body temperature, hematology parameters (blood cell test values), serum biochemistry parameters (biochemical test values), the degree of anger or anxiety, and respiratory rate. […] The degree of anger or anxiety of an animal observed visually by an observer were also evaluated using the following criteria: 1. calm and accustomed to a health care professional, 2. able to be touched by but unaccustomed to a health care professional and restless, 3. wandering around or hiding in the kennel with anxiety, 4. able to be barely touched, and 5. too violent to be touched by a health care professional and tends to bite.
A canine-derived ghrelin was repeatedly administered intravenously or subcutaneously to each of the animals with poor physical conditions. The dose of intravenous administration was approximately 5 μg/kg or 10 μg/kg, and the dose of subcutaneous administration was approximately 100 μg/kg. The mean number of doses in repeated administration was approximately four times, and the maximum number of doses was 11 times. The administration period was one to six days.
Evaluation parameters evaluated before and after administration of ghrelin were appetite, quantity of meal, biochemical test values (GOT, GPT, BUN, CRE, CPK, CRP), blood cell test values (white blood cell [WBC], platelet [PLT]), body temperature, activity (vigor), skin, coat, wellness, the degree of anger or anxiety, respiratory rate, and others. These parameters were analyzed together with the results of the animals receiving a single dose (Examples 1 and 2). The analysis results were compiled by disease, such as renal dysfunction, tumor, fracture, and accident (see Table 3-1). Statistical analysis of values before and after administration was performed using a paired t-test.

[1] = fracture, accident, etc., 19 animals
[2] = fracture, accident, etc., *p < 0.05, **p < 0.01
[3] = gastrointestinal tract disease, 7 animals
[4] = genital disease, *p < 0.05, **p < 0.01
[5] = infection or parasitism, 15 animals
[6] = infection or parasitism, *p < 0.05, **p < 0.01
[7] = inflammatory disease, 13 animals
[8] = inflammatory disease, *p < 0.05, **p < 0.01
[9] = renal dysfunction, *p < 0.05, **p < 0.01

GSS (n-octanoyl) FLSPEHQKLQQRKESKKPPAKLQPR (GSS(Octanoyl)FLSPEHQKLQQRKESKKPPAKLQPR; listed as Canis familiaris) [ghrelin, chemically synthesized, lyophilized]
BUN: animals improved/animals evaluated [1]: 6/7 | Body temperature: animals improved/animals evaluated [1]: 5/7 | CPK: animals improved/animals evaluated [1]: 2/2 | CRE: animals improved/animals evaluated [1]: 2/3 | Degree of anger: animals improved/animals evaluated [1]: 6/10 | GOT: animals improved/animals evaluated [1]: 6/6 | GPT: animals improved/animals evaluated [1]: 6/7 | PLT: animals improved/animals evaluated [1]: 4/8 | Vigor: animals improved/animals evaluated [1]: 13/16 | WBC: animals improved/animals evaluated [1]: 3/7 | Respiratory rate: animals improved/animals evaluated (fracture, accident, etc., 19 animals, #respiratory rate was stabilized in 2 of 2 animals): 2/2 | BUN: change after vs before administration (t-test) [2]: Decreased* | Body temperature: change after vs before administration (t-test) [2]: Decreased* | CPK: change after vs before administration (t-test) [2]: Decreased* | Degree of anger: change after vs before administration (t-test) [2]: Improved* | GOT: change after vs before administration (t-test) [2]: Decreased* | GPT: change after vs before administration (t-test) [2]: Decreased* | Vigor: change after vs before administration (t-test) [2]: Improved** | BUN value after administration (fractures, accidents, etc., before administration 18.3 mg/dL): 10.6 mg/dL | Body temperature after administration (fractures, accidents, etc., before administration 39.2° C.): 38.0 °C | CPK value after administration (fractures, accidents, etc., before administration 42.4 IU/L): 9.4 IU/L | Respiratory rate after administration (fractures, accidents, etc.): 50 min⁻¹ | GOT value after administration (fractures, accidents, etc., before administration 996 IU/L): 22 IU/L | GPT value after administration (fractures, accidents, etc.): 32 IU/L | Activity (vigor) score after administration (fractures, accidents, etc., before administration a score of 1): 3 | Degree of anger or anxiety score after administration (fractures, accidents, etc.): 1 | BUN: animals improved/animals evaluated [3]: 1/1 | Body temperature: animals improved/animals evaluated [3]: 2/3 | CPK: animals improved/animals evaluated [3]: 2/2 | Degree of anger: animals improved/animals evaluated [3]: 0/1 | GOT: animals improved/animals evaluated [3]: 3/3 | GPT: animals improved/animals evaluated [3]: 3/3 | PLT: animals improved/animals evaluated [3]: 0/1 | Vigor: animals improved/animals evaluated [3]: 5/5 | WBC: animals improved/animals evaluated [3]: 2/2 | Vigor: change after vs before administration (t-test) (gastrointestinal tract disease, *p < 0.05, **p < 0.01): Improved* | Activity (vigor) score after administration (gastrointestinal tract diseases, before administration a score of 1): 5 | BUN: animals improved/animals evaluated (genital disease, 29 animals): 3/3 | Body temperature: animals improved/animals evaluated (genital disease, 29 animals): 11/11 | CRE: animals improved/animals evaluated (genital disease, 29 animals): 1/2 | CRP: animals improved/animals evaluated (genital disease, 29 animals): 5/5 | Degree of anger: animals improved/animals evaluated (genital disease, 29 animals): 2/8 | GOT: animals improved/animals evaluated (genital disease, 29 animals): 3/3 | GPT: animals improved/animals evaluated (genital disease, 29 animals): 4/4 | PLT: animals improved/animals evaluated (genital disease, 29 animals): 4/7 | Respiratory rate: animals improved/animals evaluated (genital disease, 29 animals): 1/1 | Vigor: animals improved/animals evaluated (genital disease, 29 animals): 13/15 | WBC: animals improved/animals evaluated (genital disease, 29 animals): 5/7 | BUN: change after vs before administration (t-test) [4]: Decreased* | Body temperature: change after vs before administration (t-test) [4]: Decreased** | CRP: change after vs before administration (t-test) [4]: Decreased* | Vigor: change after vs before administration (t-test) [4]: Improved** | BUN value after administration (genital diseases, before administration 31.5 mg/dL): 7.1 mg/dL | CRP value after administration (genital diseases, before administration 100 mg/dL): 16 mg/dL | Body temperature after administration (genital diseases, before administration 40.1° C.): 38.1 °C | Activity (vigor) score after administration (genital diseases, before administration a score of 1): 3 | BUN: animals improved/animals evaluated [5]: 2/2 | Body temperature: animals improved/animals evaluated [5]: 3/3 | CPK: animals improved/animals evaluated [5]: 1/1 | CRE: animals improved/animals evaluated [5]: 1/1 | Degree of anger: animals improved/animals evaluated [5]: 0/2 | GOT: animals improved/animals evaluated [5]: 1/2 | GPT: animals improved/animals evaluated [5]: 3/4 | PLT: animals improved/animals evaluated [5]: 3/4 | Respiratory rate: animals improved/animals evaluated [5]: 3/3 | Vigor: animals improved/animals evaluated [5]: 10/11 | WBC: animals improved/animals evaluated [5]: 1/4 | BUN: change after vs before administration (t-test) [6]: Decreased* | Respiratory rate: change after vs before administration (t-test) [6]: Improved* | Vigor: change after vs before administration (t-test) [6]: Improved** | BUN value after administration (infections and parasitism, before administration 23.4 mg/dL): 16.4 mg/dL | Respiratory rate after administration (infections and parasitism): 70 min⁻¹ | Activity (vigor) score after administration (infections and parasitism, before administration a score of 1): 3 | BUN: animals improved/animals evaluated [7]: 4/4 | Body temperature: animals improved/animals evaluated [7]: 5/6 | CPK: animals improved/animals evaluated [7]: 1/1 | CRE: animals improved/animals evaluated [7]: 0/2 | CRP: animals improved/animals evaluated [7]: 1/2 | Degree of anger: animals improved/animals evaluated [7]: 2/5 | GOT: animals improved/animals evaluated [7]: 3/4 | GPT: animals improved/animals evaluated [7]: 4/4 | PLT: animals improved/animals evaluated [7]: 2/4 | Vigor: animals improved/animals evaluated [7]: 9/9 | WBC: animals improved/animals evaluated [7]: 3/4 | Respiratory rate: animals improved/animals evaluated (inflammatory disease, 13 animals, #respiratory rate was stabilized in 2 of 2 animals): 2/2# | BUN: change after vs before administration (t-test) [8]: Decreased* | Body temperature: change after vs before administration (t-test) [8]: Decreased* | GOT: change after vs before administration (t-test) [8]: Decreased* | GPT: change after vs before administration (t-test) [8]: Decreased* | Vigor: change after vs before administration (t-test) [8]: Improved* | BUN value after administration (inflammatory diseases, before administration 18.6 mg/dL): 10.7 mg/dL | Body temperature after administration (inflammatory diseases, before administration 39.8° C.): 38.7 °C | GOT value after administration (inflammatory diseases, before administration 149 IU/L): 25.0 IU/L | GPT value after administration (inflammatory diseases): 282 IU/L | Activity (vigor) score after administration (inflammatory diseases, before administration a score of 1): 3 | BUN: animals improved/animals evaluated (renal dysfunction, 10 animals): 2/3 | Body temperature: animals improved/animals evaluated (renal dysfunction, 10 animals): 2/2 | CRE: animals improved/animals evaluated (renal dysfunction, 10 animals): 3/3 | Degree of anger: animals improved/animals evaluated (renal dysfunction, 10 animals): 1/3 | GOT: animals improved/animals evaluated (renal dysfunction, 10 animals): 0/1 | GPT: animals improved/animals evaluated (renal dysfunction, 10 animals): 1/1 | PLT: animals improved/animals evaluated (renal dysfunction, 10 animals): 4/5 | Respiratory rate: animals improved/animals evaluated (renal dysfunction, 10 animals): 1/1 | Vigor: animals improved/animals evaluated (renal dysfunction, 10 animals): 5/6 | WBC: animals improved/animals evaluated (renal dysfunction, 10 animals): 5/5 | CRE: change after vs before administration (t-test) [9]: Decreased* | PLT: change after vs before administration (t-test) [9]: Increased** | Vigor: change after vs before administration (t-test) [9]: Improved** | WBC: change after vs before administration (t-test) [9]: Decreased* | Serum creatinine (CRE) value after administration (renal dysfunctions, before administration 3.2 mg/dL): 1.3 mg/dL | White blood cell (WBC) count after administration (renal dysfunctions, before administration 324×10^2/μL): 13900 µL⁻¹ | Activity (vigor) score after administration (renal dysfunctions, before administration a score of 2): 3 | BUN: animals improved/animals evaluated (tumor, 14 animals): 2/4 | Body temperature: animals improved/animals evaluated (tumor, 14 animals): 6/6 | CRE: animals improved/animals evaluated (tumor, 14 animals): 2/4 | CRP: animals improved/animals evaluated (tumor, 14 animals): 2/2 | Degree of anger: animals improved/animals evaluated (tumor, 14 animals): 4/6 | GOT: animals improved/animals evaluated (tumor, 14 animals): 3/5 | GPT: animals improved/animals evaluated (tumor, 14 animals): 4/6 | PLT: animals improved/animals evaluated (tumor, 14 animals): 3/6 | Respiratory rate: animals improved/animals evaluated (tumor, 14 animals): 1/1 | Vigor: animals improved/animals evaluated (tumor, 14 animals): 7/8 | WBC: animals improved/animals evaluated (tumor, 14 animals): 3/6 | Body temperature: change after vs before administration (t-test) (tumor, *p < 0.05, **p < 0.01): Decreased* | Degree of anger: change after vs before administration (t-test) (tumor, *p < 0.05, **p < 0.01): Improved* | Vigor: change after vs before administration (t-test) (tumor, *p < 0.05, **p < 0.01): Improved* | Body temperature after administration (tumors, before administration 39.8° C.): 38.6 °C | Activity (vigor) score after administration (tumors, before administration a score of 3): 6 | Degree of anger or anxiety score after administration (tumors): 2
